Measurements published in PMC3401643 (2009).

Molecular target: T1, retinoid X receptor α (RXRα) (Homo sapiens, UniProt P19793)
T1 sequence (P19793 223-462): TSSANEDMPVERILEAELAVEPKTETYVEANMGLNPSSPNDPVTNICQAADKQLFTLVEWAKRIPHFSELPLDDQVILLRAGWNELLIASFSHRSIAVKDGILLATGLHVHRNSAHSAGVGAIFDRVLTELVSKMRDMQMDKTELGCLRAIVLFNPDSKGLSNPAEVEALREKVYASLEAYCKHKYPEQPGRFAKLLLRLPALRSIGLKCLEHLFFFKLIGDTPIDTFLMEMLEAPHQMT
Type: binding

## C[C@@H](C(=O)O)c1ccc(-c2ccccc2)c(F)c1 [R-Flur, (R)-flurbiprofen]
  IC50: ~75 µM
